# Data: patent publication US20230407296A1, “Method to Regulate ALOX12-AS1 IncRNA-Mediated Alteration of ALOX12 Protein and to Screen for Novel Drugs to Alter ALOX12 Protein Level” (priority 2021, published 2023)
# Legend:
# ALOX12-AS1-201 lncRNA = assay: Nucleo-cytoplasmic translocation of ALOX12-AS1-201 in HEK293 cells (FISH, fractionation, quantitative RT-PCR); format: cell-based, human; details: 10 μM TPA, 1 hour
# Experimental: Phorbol ester (12-O-Tetradecanoylphorbol 13-acetate: TPA) is an activator of protein kinase C (PKC) that has been frequently used for inducing differentiation in different cell types including myeloid cells. […] Therefore, we treated HEK293 cells with 10 μM TPA for 1 hour and observed ALOX12-AS1-201 nucleo-cytoplasmic translocation as well as measured ALOX12 protein level.
# Total RNA from different cell lines was extracted with Trizol reagent (Catalog number: 15596026; ThermoFisher Scientific, Canada) as per the manufacturer's recommended protocol. […] Absolute quantification of ALOX12-AS1 lncRNA isoforms was performed in a Mastercycler®ep realplex real-time PCR system (Eppendorf, Hamburg, Germany) using SYBR green dye (Catalog number: S7563; ThermoFisher Scientific). […] Real-time PCR data quality control calculations were determined by the SAS program as described previously and the calculated PCR efficiency was between 95%-99%. Quantitative RT-PCR was conducted for different cell-line derived RNAs, and the specificity of each amplified product was confirmed by melting curve analysis. Results were expressed as copy number of specific isoforms per 100 ng of total RNA.
# For RNA-FISH, cells were grown on coverslips and human tissue cryosections were adhered to glass slides. […] The cells were then fixed and analyzed by RNA-FISH. […]
# ALOX12 = ALOX12 catalytic activity in cell lysates (12S-HETE ELISA); format: biochemical, human; details: lysate of TPA-induced MLC, 50 μM arachidonic acid, 15 min, 37° C.; vehicle THP-1 lysate ~6 ng
# Source text: We measured ALOX12 enzyme activity of THP-1 and TPA-induced MLC cell lysates and compared them to establish the biological relevance of lncRNA-mediated downregulation of ALOX12 protein level. We used a cell-free system to avoid any limitations of intracellular arachidonic acid uptake by an in vitro cell-based system. As well, we used a platelet-derived protein-lysate as a positive control for ALOX12 enzyme activity. ALOX12 was originally discovered and characterized as an arachidonic acid peroxidizing enzyme in platelets.
# ALOX12 catalytic activity was measured in a cell-free system using cell lysates derived from unactivated human platelets (positive control) and Phorbol ester (12-O-Tetradecanoylphorbol 13-acetate: TPA)/vehicle (DMSO/ethanol)-treated THP-1. ALOX12 converts arachidonate to the bioactive lipid 12(S)-hydroperoxyeicosatetraenoate (12S-HpETE). […] The cell lysates prepared in 1×PBS supplemented with 0.5% NP40, 1× Halt protease and phosphatase inhibitor cocktail 1 were incubated with 50 μM arachidonic acid (catalogue number: A0781, Tokyo Chemical Industry, USA) for 15 min at 37° C. and the amount of 12S-HETE was quantitatively measured using a commercially available Enzyme-Linked ImmunoAssay (ELISA) kit (catalogue number: ADI-900-050, Enzo Life Sciences Inc., USA) as per the manufacturer's instructions. […]
structure (smiles),measurement,setting,value
"CCCCCCCCCCCCCC(=O)O[C@@H]1[C@@H](C)[C@@]2(O)[C@@H](C=C(CO)C[C@]3(O)C(=O)C(C)=C[C@@H]23)[C@@H]2C(C)(C)[C@]12OC(C)=O [TPA, 12-O-Tetradecanoylphorbol 13-acetate]",ALOX12-AS1-201 nucleo-cytoplasmic translocation,"ALOX12-AS1-201 lncRNA; FISH, vs vehicle (DMSO)",dramatic nucleo-cytoplasmic translocation
same,cytosolic ALOX12-AS1-201 lncRNA abundance,ALOX12-AS1-201 lncRNA; subcellular fractionation and quantitative RT-PCR,significant increase
same,12S-HETE production,ALOX12,~1.3 ng
